Laboratory results reported in paper PMC7450057, “Enhancing intracellular accumulation and target engagement of PROTACs with reversible covalent chemistry” (Nature Communications, 2020).
Several values for one entry are separate records, joined by “and”; a condition that tells them apart may be missing. Identical values can stand only once.

Columns and labels:
full-length BTK protein = molecular target: T1, full-length BTK protein (Homo sapiens, UniProt Q06187); assay: BTK binding assay (Kd, Eurofins DiscoverX)
T1 construct: Kd was measured using the full-length BTK protein by Eurofins DiscoverX; T7 phage fusion or DNA tag for qPCR (generic vendor protocol); purchased Eurofins DiscoverX
Summary of the method: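 Competition binding of DNA-tagged full-length BTK (T7 phage or HEK-293 produced) against immobilised ligand on blocked beads, with the remaining kinase quantified by qPCR. An 11-point 3-fold compound dilution was tested at 1% final DMSO. Kd came from a Hill fit with slope fixed at −1.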

[1] = molecular target: truncated Cereblon protein (Homo sapiens, UniProt Q96SW2); assay: CRBN binding assay (fluorescence quenching); details: for Fluorescence Intensity: Supplementary Figure 11, replicates
Summary of the method: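 Kd derived from a quenching-curve fit (I=I0−If×Kd/P0+Kd+If) after buffer-blank subtraction. Compound used at 100 nM final with truncated Cereblon protein.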

MOLM-14 cells = assay: Quantification of intracellular drug concentration by LC-MS; assay type: in vitro ADME; details: for Intracellular concentration: Concentration of compound, AVE / intracellular amount, AVE / intracellular amount / Intracellular concentration: Concentration of compound: 200 nM; for Intracellular concentration: Concentration of compound, AVE / intracellular amount, AVE: average of 3 replicates; for intracellular amount: initial amount 0.4000 nmol; for Intracellular concentration: Concentration of compound: sample volume 400 µL
Experimental: MOLM-14 cells were seeded at a density of 0.5 × 10^6 per mL in 2 mL medium. […] The samples were immediately centrifuged at 12,000 × g for 15 min at 4 °C, then removing the supernatant. In all, 400 μL of NP-40 lysis buffer was added to the cell pellet and mixed thoroughly. The mixtures were rocked for 1 h at 4 °C and centrifuged at 12,000 × g for 15 min at 4 °C. Then the supernatant was transferred to new EP tubes. In total, 20 µL supernatant was extracted with 180 µL of acetonitrile (containing internal standard: 250 nM of RNC-Ctrl) and centrifuged at the same conditions described above. Take 75 μL of supernatant for liquid chromatography-mass spectrometry analysis.
The mass spectrometer was operated in positive SIM ion mode (fragmentor 120 V; cycle time 0.6 s/cycle; Agilent Technologies 6130 Quadrupole LC/MS).

BTK = BTK (Homo sapiens, UniProt Q06187); assay: BTK degradation in MOLM-14 cells (western blot); assay type: cell-based; design: endogenous in cells; host or cells: MOLM-14; details: for BTK%: Figure 2c, DMSO = 100
Maver-1 = assay: IC50 in MCL cell lines (Supplementary Table 2), Maver-1; details: for Cell Viability (%): Maver-1 cells, replicate wells

T1 sequence (Q06187 whole entry, the tested form may be a part): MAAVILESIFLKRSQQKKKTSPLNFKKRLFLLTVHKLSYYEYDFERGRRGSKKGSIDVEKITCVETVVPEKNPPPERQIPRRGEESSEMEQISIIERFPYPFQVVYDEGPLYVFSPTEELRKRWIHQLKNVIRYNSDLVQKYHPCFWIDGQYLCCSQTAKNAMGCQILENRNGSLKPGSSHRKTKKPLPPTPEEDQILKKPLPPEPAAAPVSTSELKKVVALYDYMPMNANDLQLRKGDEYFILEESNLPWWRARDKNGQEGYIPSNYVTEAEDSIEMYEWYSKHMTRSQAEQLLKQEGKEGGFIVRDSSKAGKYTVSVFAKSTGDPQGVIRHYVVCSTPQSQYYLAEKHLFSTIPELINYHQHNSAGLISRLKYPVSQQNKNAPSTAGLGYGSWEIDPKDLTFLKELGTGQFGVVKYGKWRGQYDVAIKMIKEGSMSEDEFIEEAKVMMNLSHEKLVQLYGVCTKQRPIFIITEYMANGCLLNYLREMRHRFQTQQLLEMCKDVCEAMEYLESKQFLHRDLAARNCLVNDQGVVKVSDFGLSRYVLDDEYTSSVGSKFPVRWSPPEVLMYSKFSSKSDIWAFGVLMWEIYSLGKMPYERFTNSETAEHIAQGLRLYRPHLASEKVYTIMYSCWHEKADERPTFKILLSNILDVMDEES
BTK, sequence (Q06187 whole entry): as the sequence (Q06187 whole entry, the tested form may be a part) above
truncated Cereblon protein, sequence (Q96SW2 318-426): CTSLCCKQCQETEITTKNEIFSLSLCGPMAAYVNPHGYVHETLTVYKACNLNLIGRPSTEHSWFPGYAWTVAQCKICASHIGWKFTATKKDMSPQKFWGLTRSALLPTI

CN(CCCNC(=O)CNc1cccc2c1C(=O)N(C1CCC(=O)NC1=O)C2=O)C(C)(C)C=C(C#N)C(=O)N1CCC[C@@H](n2nc(-c3ccc(Oc4ccccc4)cc3)c3c(N)ncnc32)C1 (stereo partly shown) [RC-1]
Signal (full-length BTK protein; BTK_+DTT, compound concentration 0.00491 nM): 2.20E-05 and 2.17E-05 | Signal (full-length BTK protein; BTK_+DTT, compound concentration 0.0147 nM): 1.92E-05 and 1.81E-05 | Signal (full-length BTK protein; BTK_+DTT, compound concentration 0.0442 nM): 2.14E-05 and 1.73E-05 | Signal (full-length BTK protein; BTK_+DTT, compound concentration 0.133 nM): 2.05E-05 and 2.18E-05 | Signal (full-length BTK protein; BTK_+DTT, compound concentration 0.398 nM): 2.41E-05 and 2.16E-05 | Signal (full-length BTK protein; BTK_+DTT, compound concentration 1.19 nM): 1.65E-05 and 1.58E-05 | Signal (full-length BTK protein; BTK_+DTT, compound concentration 3.58 nM): 1.59E-05 and 1.74E-05 | Signal (full-length BTK protein; BTK_+DTT, compound concentration 10.7 nM): 1.27E-05 and 1.43E-05 | Signal (full-length BTK protein; BTK_+DTT, compound concentration 32.2 nM): 8.15E-06 and 9.04E-06 | Signal (full-length BTK protein; BTK_+DTT, compound concentration 96.7 nM): 2.36E-06 and 3.19E-06 | Signal (full-length BTK protein; BTK_+DTT, compound concentration 290 nM): 6.97E-07 and 7.79E-07 | Signal (full-length BTK protein; BTK_-DTT, compound concentration 0.0152 nM): 1.51E-05 and 1.47E-05 | Signal (full-length BTK protein; BTK_-DTT, compound concentration 0.0457 nM): 1.49E-05 and 1.51E-05 | Signal (full-length BTK protein; BTK_-DTT, compound concentration 0.137 nM): 1.65E-05 and 2.03E-05 | Signal (full-length BTK protein; BTK_-DTT, compound concentration 0.412 nM): 1.54E-05 and 1.43E-05 | Signal (full-length BTK protein; BTK_-DTT, compound concentration 1.23 nM): 1.12E-05 and 1.17E-05 | Signal (full-length BTK protein; BTK_-DTT, compound concentration 3.7 nM): 1.02E-05 and 1.17E-05 | Signal (full-length BTK protein; BTK_-DTT, compound concentration 11.1 nM): 6.96E-06 and 6.70E-06 | Signal (full-length BTK protein; BTK_-DTT, compound concentration 33.3 nM): 2.36E-06 and 3.11E-06 | Signal (full-length BTK protein; BTK_-DTT, compound concentration 100 nM): 5.28E-07 and 7.20E-07 | Signal (full-length BTK protein; BTK_-DTT, compound concentration 300 nM): 2.64E-07 and 1.61E-07 | Kd (full-length BTK protein; full-length BTK, absence of DTT in the buffer, duplicates): 6.4 nM | Fluorescence Intensity ([1]; CRBN 0 μM): 4127.8 and 4128.8 and 3844.8 | Fluorescence Intensity ([1]; CRBN 0.734375 μM): 3220.8 and 3187.8 and 3673.8 | Fluorescence Intensity ([1]; CRBN 1.46875 μM): 3204.8 and 3148.8 and 2908.8 | Fluorescence Intensity ([1]; CRBN 2.9375 μM): 2864.8 and 2662.8 and 2860.8 | Fluorescence Intensity ([1]; CRBN 5.875 μM): 2528.8 and 2598.8 and 2686.8 | Fluorescence Intensity ([1]; CRBN 11.75 μM): 1735.8 and 1776.8 and 2083.8 | Fluorescence Intensity ([1]; CRBN 23.5 μM): 1563.8 and 1722.8 and 1455.8 | Kd ([1]; truncated Cereblon protein, fluorescence quenching, triplicates): 4200 nM | Intracellular concentration: Concentration of compound, AVE (MOLM-14 cells; 5 min): 0.1304 µM | intracellular amount, AVE (MOLM-14 cells; 5 min): 0.0522 nmol | intracellular amount (MOLM-14 cells; 5 min, single replicates): 0.0607 nmol and 0.0507 nmol and 0.0451 nmol | Intracellular concentration: Concentration of compound (MOLM-14 cells; 5 min, single replicates): 0.1517 µM and 0.1267 µM and 0.1128 µM | Intracellular concentration: Concentration of compound, AVE (MOLM-14 cells; 15 min): 0.1127 µM | intracellular amount, AVE (MOLM-14 cells; 15 min): 0.0451 nmol | intracellular amount (MOLM-14 cells; 15 min, single replicates): 0.0487 nmol and 0.0414 nmol and 0.0451 nmol | Intracellular concentration: Concentration of compound (MOLM-14 cells; 15 min, single replicates): 0.1218 µM and 0.1035 µM and 0.1128 µM | Intracellular concentration: Concentration of compound, AVE (MOLM-14 cells; 30 min): 0.1159 µM | intracellular amount, AVE (MOLM-14 cells; 30 min): 0.0464 nmol | intracellular amount (MOLM-14 cells; 30 min, single replicates): 0.0474 nmol and 0.0471 nmol and 0.0447 nmol | Intracellular concentration: Concentration of compound (MOLM-14 cells; 30 min, single replicates): 0.1184 µM and 0.1177 µM and 0.1117 µM | Intracellular concentration: Concentration of compound, AVE (MOLM-14 cells; 60 min): 0.1117 µM | intracellular amount, AVE (MOLM-14 cells; 60 min): 0.0447 nmol | intracellular amount (MOLM-14 cells; 60 min, single replicates): 0.0471 nmol and 0.0390 nmol and 0.0480 nmol | Intracellular concentration: Concentration of compound (MOLM-14 cells; 60 min, single replicates): 0.1177 µM and 0.0975 µM and 0.1199 µM | Intracellular concentration: Concentration of compound, AVE (MOLM-14 cells; 90 min): 0.1080 µM | intracellular amount, AVE (MOLM-14 cells; 90 min): 0.0432 nmol | intracellular amount (MOLM-14 cells; 90 min, single replicates): 0.0436 nmol and 0.0454 nmol and 0.0405 nmol | Intracellular concentration: Concentration of compound (MOLM-14 cells; 90 min, single replicates): 0.1091 µM and 0.1136 µM and 0.1013 µM | Intracellular concentration: Concentration of compound, AVE (MOLM-14 cells; 120 min): 0.1194 µM | intracellular amount, AVE (MOLM-14 cells; 120 min): 0.0478 nmol | intracellular amount (MOLM-14 cells; 120 min, single replicates): 0.0460 nmol and 0.0513 nmol | Intracellular concentration: Concentration of compound (MOLM-14 cells; 120 min, single replicates): 0.1151 µM and 0.1282 µM | Intracellular concentration: Concentration of compound, AVE (MOLM-14 cells; 240 min): 0.1060 µM | intracellular amount, AVE (MOLM-14 cells; 240 min): 0.0424 nmol | intracellular amount (MOLM-14 cells; 240 min, single replicates): 0.0426 nmol and 0.0421 nmol and 0.0424 nmol | Intracellular concentration: Concentration of compound (MOLM-14 cells; 240 min, single replicates): 0.1065 µM and 0.1054 µM and 0.1061 µM | Cellular concentration (MOLM-14 cells; 5 min, Mean): 0.0522 nmol/million cells | Cellular concentration (MOLM-14 cells; 5 min, single replicates, MOLM-14, 200 nM): 0.0607 nmol/million cells and 0.0507 nmol/million cells and 0.0451 nmol/million cells | Cellular concentration (MOLM-14 cells; 15 min, Mean): 0.0451 nmol/million cells | Cellular concentration (MOLM-14 cells; 15 min, single replicates, MOLM-14, 200 nM): 0.0487 nmol/million cells and 0.0414 nmol/million cells and 0.0451 nmol/million cells | Cellular concentration (MOLM-14 cells; 30 min, Mean): 0.0464 nmol/million cells | Cellular concentration (MOLM-14 cells; 30 min, single replicates, MOLM-14, 200 nM): 0.0474 nmol/million cells and 0.0471 nmol/million cells and 0.0447 nmol/million cells | Cellular concentration (MOLM-14 cells; 60 min, Mean): 0.0447 nmol/million cells | Cellular concentration (MOLM-14 cells; 60 min, single replicates, MOLM-14, 200 nM): 0.0390 nmol/million cells and 0.0480 nmol/million cells and 0.0471 nmol/million cells and 0.039 nmol/million cells and 0.048 nmol/million cells | Cellular concentration (MOLM-14 cells; 90 min, Mean): 0.0432 nmol/million cells | Cellular concentration (MOLM-14 cells; 90 min, single replicates, MOLM-14, 200 nM): 0.0436 nmol/million cells and 0.0454 nmol/million cells and 0.0405 nmol/million cells | Cellular concentration (MOLM-14 cells; 120 min, Mean): 0.0478 nmol/million cells | Cellular concentration (MOLM-14 cells; 120 min, single replicates, MOLM-14, 200 nM): 0.0460 nmol/million cells and 0.046 nmol/million cells and 0.0513 nmol/million cells | Cellular concentration (MOLM-14 cells; 240 min, Mean): 0.0424 nmol/million cells | Cellular concentration (MOLM-14 cells; 240 min, single replicates, MOLM-14, 200 nM): 0.0426 nmol/million cells and 0.0421 nmol/million cells and 0.0424 nmol/million cells | intracellular concentration of RC-1 relative to RNC-1 and IRC-1 (MOLM-14 cells; LC-MS of cell lysates): ~ 2 fold | Quantification anti-BTK / anti-β-actin (BTK level vs DMSO) (BTK; Figure 2b, 8 nM, duplicates): 63.6968 and 56.9893 | Quantification anti-BTK / anti-β-actin (BTK level vs DMSO) (BTK; Figure 2b, 40 nM, duplicates): 41.0784 and 35.9122 | Quantification anti-BTK / anti-β-actin (BTK level vs DMSO) (BTK; Figure 2b, 200 nM, duplicates): 29.8182 and 40.565 | BTK% (BTK; 1.6 nM, duplicates): 93.8522% and 87.3729% | BTK% (BTK; 8 nM, duplicates): 68.8086% and 49.2324% | BTK% (BTK; 200 nM, duplicates): 29.085% and 28.987% | BTK% (BTK; 1000 nM, duplicates): 33.1562% and 45.5509% | Quantification anti-BTK / anti-β-actin (BTK level vs DMSO) (BTK; Figure 2d, DMSO = 100 (mean)): 23.0985 | Degradation at 200 nM (percentage of BTK degradation) (BTK; MOLM-14 cells, 200 nM, 24 h incubation): 81% | DC50 (BTK; MOLM-14 cells, 24 h, western blot, read-out: DC50 (compound concentration inducing 50% of protein degradation)): 6.6 nM | IC50 (Maver-1; Maver-1, triplicates): 3300 nM | Cell Viability (%) (Maver-1; 1.25E-06 M): 72.3477% and 75.344% and 75.6032% | Cell Viability (%) (Maver-1; 1.56E-07 M): 94.303% and 94.8872% and 90.9031% | Cell Viability (%) (Maver-1; 2.50E-06 M): 56.7361% and 58.5739% and 54.2977% | Cell Viability (%) (Maver-1; 3.13E-07 M): 94.0011% and 92.8623% and 88.8158% | Cell Viability (%) (Maver-1; 5.00E-06 M): 44.682% and 45.5221% and 44.0945% | Cell Viability (%) (Maver-1; 6.25E-07 M): 91.7892% and 94.3523% and 87.1487% | Cell Viability (%) (Maver-1; 7.81E-08 M): 97.5389% and 95.4976% and 96.2656%
